Reference: patent EP4509511A1, “SUBSTITUTED SPIRO-ISOXAZOLINYL LACTAMS, SALTS THEREOF AND THEIR USE AS HERBICIDALLY ACTIVE SUBSTANCES” (Bayer Aktiengesellschaft, priority 2023, dated 2025)

Key:
MATIN = test: Herbicidal pre-emergence action - Part I; format: in vivo, Matricaria inodora; conditions: visual grading after ca. 3 weeks vs untreated controls
In short: (§1)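 Pre-emergence soil-surface spray, 1280 g/ha or lower, WP/EC formulations plus 0.5% additive, 600 l/ha water. Pots of sandy loam, double sowing mono/dicot weeds. Greenhouse, optimum conditions; % herbicidal effect scored visually at ~3 wk, 100% = plants died, 0% = as control.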

KCHSC = test: Herbicidal pre-emergence action - Part I; format: in vivo, Kochia scoparia; conditions: 1280 g/ha
In short: as §1

STEME = test: Herbicidal post-emergence action - Part I; format: in vivo, Stellaria media; conditions: 1280 g/ha, one-leaf stage, rated visually after about 3 weeks vs untreated controls
In short: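 Greenhouse weeds grown in sandy loam were sprayed post-emergence at the one-leaf stage, 2-3 weeks after sowing. Compounds were applied as WP or EC in water with 0.5% additive at 600 L/ha, at 1280 g/ha or below. Visual damage was rated after about 3 weeks versus untreated plants (0-100%).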

ALOMY = test: Herbicidal pre-emergence action - Part II; format: in vivo, Alopecurus myosuroides; conditions: visual grading after ca. 3 weeks vs untreated controls
Text: (§2) Seeds of mono- and dicotyledonous weed plants and crop plants were sown, in plastic or organic planting pots, in sandy loam and covered with soil. The compounds according to the invention, formulated in the form of wettable powders (WP) or as emulsifiable concentrates (EC), were applied to the surface of the covering soil as aqueous suspension or emulsion, with the addition of 0.5% of an additive, at an application rate of 600 1 of water/ha (converted). Following treatment, the pots were placed in a greenhouse and kept under optimum growth conditions for the test plants. The visual grading of the damage to the test plants was carried out after ca. 3 weeks in comparison to untreated controls (herbicidal effect in percent (%): 100% effect = plants have died off, 0% effect = as control plants). Tables C1 to C12 below show the effects of selected compounds of the general formula (I) according to table 1 on various harmful plants and an application rate corresponding to 320 g/ha or below obtained by the experimental procedure mentioned above. Table C1: pre-emergence activity at 320g/ha against ABUTH in %

LOLRI = test: Herbicidal pre-emergence action - Part II; format: in vivo, Lolium rigidum; conditions: 320 g/ha; Table C7
Text: as §2

SETVI = test: Herbicidal pre-emergence action - Part II; format: in vivo, Setaria viridis
Text: as §2

GLXMA [1] = test: Pre-emergence effects on crop plants; format: in vivo, Glycine max; conditions: crop plant
Text: Seeds of mono- and dicotyledonous weed plants and crop plants were sown, in plastic or organic planting pots, in sandy loam and covered with soil. The compounds according to the invention, formulated in the form of wettable powders (WP) or as emulsifiable concentrates (EC), were applied to the surface of the covering soil as aqueous suspension or emulsion, with the addition of 0.5% of an additive, at an application rate of 600 1 of water/ha (converted). Following treatment, the pots were placed in a greenhouse and kept under optimum growth conditions for the test plants. The visual grading of the damage to the test plants was carried out after ca. 3 weeks in comparison to untreated controls (herbicidal effect in percent (%): 100% effect = plants have died off, 0% effect = as control plants). Tables D1 to D5 below show the effects of various compounds of the general formula (I) according to Table 1 on various crop plants and an application rate corresponding to 320 g/ha or below obtained by the experimental procedure mentioned above in Biological Examples, Section C. Table […]: pre-emergence activity at 320g/ha against ZEAMX in %

TRZAS = test: Post-emergence effects on crop plants; format: in vivo, Triticum aestivum; conditions: crop plant
In short: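 Crop plants were grown in sandy loam in the greenhouse and sprayed at the single-leaf stage, 2–3 weeks after sowing, with WP or EC formulations plus 0.5% additive in 600 l water/ha, at rates of 320 g/ha or below. Injury was scored visually about 3 weeks later as % effect versus untreated controls (100% = plants dead).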

GLXMA [2] = test: Post-emergence effects on crop plants; format: in vivo, Glycine max; conditions: crop plant
Text: (§3) Seeds of mono- and dicotyledonous weed plants and crop plants were sown, in plastic or organic planting pots, in sandy loam, covered with soil and grown in a greenhouse under controlled growth conditions. 2 to 3 weeks after sowing, the test plants were sprayed in the single-leaf stage. The compounds according to the invention, formulated in form of wettable powders (WP) or as emulsifiable concentrates (EC), were sprayed onto the green plant parts as aqueous suspension or emulsion, with the addition of 0.5% of an additive, at an application rate of 600 1 of water/ha (converted). The test plants were placed in the greenhouse for ca. 3 weeks under optimum growth conditions, and then the effect of the preparations was assessed visually in comparison with untreated controls (herbicidal effect in percent (%): 100% effect = plants have died off, 0% effect = as control plants). Tables F1 to F5 below show the effects of selected compounds of the general formula (I) according to table 1 on various crop plants and an application rate corresponding to 320 g/ha or below obtained by the experimental procedure mentioned above. Table […]: post-emergence activity at 5g/ha against ZEAMX in %

BRSNW = test: Post-emergence effects on crop plants; format: in vivo, Brassica napus; conditions: crop plant
Text: as §3

[3] = Table A10a, visual grading after ca. 3 weeks vs untreated controls
[4] = 80 g/ha, table titled F4c (BRSNW)

Cc1ccsc1C1=NOC2(CCN(Cc3c(F)cccc3F)C2=O)C1 (racemic) [Compound I-16, 7-(2,6-Difluorobenzyl)-3-(3-methyl-2-thienyl)-1-oxa-2,7-diazaspiro[4.4]non-2-en-6-one]
pre-emergence activity at 320g/ha against MATIN in % (MATIN): 90% | pre-emergence activity at 1280g/ha against MATIN in % (MATIN): 90% | pre-emergence activity at 1280g/ha against KCHSC in % (KCHSC; [3]): 90% | post-emergence activity at 1280g/ha against STEME in % (STEME): 90% | pre-emergence activity at 320g/ha against ALOMY in % (ALOMY): 80% | pre-emergence activity against LOLRI (LOLRI): 100% | pre-emergence activity against SETVI (SETVI; 320 g/ha, Table C10a): 90% | pre-emergence activity against GLXMA (GLXMA [1]; 80 g/ha, Table D4b): 10% | pre-emergence activity against GLXMA (GLXMA [1]; Table D4a, title: 320g/ha, application rate: 80 g/ha): 20% | post-emergence activity against TRZAS (TRZAS; 80 g/ha, Table F2c): 0% | post-emergence activity against TRZAS (TRZAS; 320 g/ha, Table F2d): 0% | post-emergence activity against GLXMA (GLXMA [2]; 80 g/ha, Table F4c): 0% | post-emergence activity against GLXMA (GLXMA [2]; Table F4d, title: 320 g/ha, application rate: 80 g/ha): 0% | post-emergence activity against BRSNW (BRSNW; [4]): 0% | post-emergence activity against BRSNW (BRSNW; table titled F4d (BRSNW), title: 320 g/ha, application rate: 80 g/ha): 0%

O=C1N(Cc2ccccc2F)CCC12CC(c1c(F)cccc1F)=NO2 (racemic) [Compound I-10]
pre-emergence activity at 320g/ha against MATIN in % (MATIN): 90% | pre-emergence activity at 1280g/ha against MATIN in % (MATIN): 90% | pre-emergence activity at 1280g/ha against KCHSC in % (KCHSC; 504 h): 90% | pre-emergence activity at 1280g/ha against KCHSC in % (KCHSC; [3]): 90% | post-emergence activity at 1280g/ha against STEME in % (STEME): 90% | pre-emergence activity at 320g/ha against ALOMY in % (ALOMY): 80% | pre-emergence activity against LOLRI (LOLRI): 80% | pre-emergence activity against SETVI (SETVI; 320 g/ha, Table C10a): 90% | pre-emergence activity against GLXMA (GLXMA [1]; 80 g/ha, Table D4b): 10% | post-emergence activity against TRZAS (TRZAS; 80 g/ha, Table F2c): 0% | post-emergence activity against TRZAS (TRZAS; 320 g/ha, Table F2d): 10% | post-emergence activity against GLXMA (GLXMA [2]; 80 g/ha, Table F4c): 0% | post-emergence activity against BRSNW (BRSNW; [4]): 0%

Cc1ccsc1C1=NOC2(CCCN(Cc3c(F)cccc3F)C2=O)C1 (racemic) [Compound I-2]
pre-emergence activity at 320g/ha against MATIN in % (MATIN): 90% | pre-emergence activity at 1280g/ha against MATIN in % (MATIN): 90% | pre-emergence activity at 1280g/ha against KCHSC in % (KCHSC; 504 h): 90% | pre-emergence activity at 1280g/ha against KCHSC in % (KCHSC; [3]): 90% | post-emergence activity at 1280g/ha against STEME in % (STEME): 90% | pre-emergence activity at 320g/ha against ALOMY in % (ALOMY): 90% | pre-emergence activity against LOLRI (LOLRI): 90% | pre-emergence activity against SETVI (SETVI; 80 g/ha, Table C10b): 100% | pre-emergence activity against SETVI (SETVI; 320 g/ha, Table C10a): 100% | pre-emergence activity against GLXMA (GLXMA [1]; 80 g/ha, Table D4b): 0% | post-emergence activity against TRZAS (TRZAS; 80 g/ha, Table F2c): 0% | post-emergence activity against TRZAS (TRZAS; 320 g/ha, Table F2d): 0% | post-emergence activity against GLXMA (GLXMA [2]; 80 g/ha, Table F4c): 0% | post-emergence activity against BRSNW (BRSNW; [4]): 10%
